Patent US20080221116A1, “ISOXAZOLINE ALPHA 1a/1d ADRENORECEPTOR ANTAGONISTS” (priority 2006, published 2008)
Values joined by “and” are separate entries in the source; they are usually repeats but may differ in a detail not shown here. Identical values can stand only once. Like-named read-outs stand apart in the source and are kept apart here.

What was measured:
Settings in all cases: COS-7 membranes
α1a-AR = molecular target: T1, α1a-AR (Homo sapiens, UniProt P35348); assay: α1-Adrenergic Receptor Binding Assay, 125I-HEAT radio-ligand binding, transfected COS-7 cell membranes, α1a subtype
T1 construct: expressed in transfected cells; host or cells: COS-7 cells (African Green monkey kidney), membranes
T1 sequence (P35348 1-466): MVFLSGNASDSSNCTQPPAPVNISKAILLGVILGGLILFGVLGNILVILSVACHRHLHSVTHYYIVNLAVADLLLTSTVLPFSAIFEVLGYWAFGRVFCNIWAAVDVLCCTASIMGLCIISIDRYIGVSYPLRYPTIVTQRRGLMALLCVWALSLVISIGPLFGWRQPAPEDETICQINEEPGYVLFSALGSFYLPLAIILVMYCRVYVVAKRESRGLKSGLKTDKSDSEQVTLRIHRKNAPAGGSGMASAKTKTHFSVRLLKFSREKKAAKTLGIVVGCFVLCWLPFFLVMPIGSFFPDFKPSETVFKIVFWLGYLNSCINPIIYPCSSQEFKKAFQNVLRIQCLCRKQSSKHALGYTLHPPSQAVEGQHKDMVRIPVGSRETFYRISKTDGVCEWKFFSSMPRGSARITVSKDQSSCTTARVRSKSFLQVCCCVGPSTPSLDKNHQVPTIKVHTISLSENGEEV
Experimental: (§1) Membranes were prepared from COS-7 cells (African Green monkey kidney SV40-transformed cells) that had been transfected with one of the three α1-AR subtypes by the following method: COS cells from ten 100 mm tissue culture plates were scraped into a 5 ml volume of TE (a mixture of 50 mM tris(hydroxymethyl)aminomethane hydrochloride (Tris-HCl) and 5 mM ethylenediaminetetraacetic acid (EDTA) at pH 7.4). The cell suspension was disrupted with a Brinkman Polytron (at a setting of 8) for 10 sec. The disrupted cells were centrifuged at 1000×g for 10 min at 4° C. Supernatants were centrifuged at 34,500×g for 20 min at 4° C. The membrane pellets were suspended in a 2 ml volume of TNE (a mixture of 50 mM Tris-HCl, 5 mM EDTA and 150 mM NaCl at pH7.4). An aliquot of the membrane suspension was stored at −70° C. until use. The protein concentration was determined using a BioRad “DC” protein assay kit following membrane solubilization with Triton X-100.
(§2) Triplicate determinations of radio-ligand binding in the presence of increasing concentrations of testing compound were made. The reagents were added to 96-well polypropylene plate wells. Each assay well contained 140 μL TNE, 25 μL 125′-2-(β-4-hydroxyphenyl)ethylaminomethyltetralone (^125I-HEAT) (specific activity 2200 Ci/mmol, Dupont-New England Nuclear, […] final), 10 μL testing compound dissolved in dimethyl sulfoxide (DMSO) ([…] to 10 μM in half-log increments, final), and 25 μL appropriate α1-AR membrane subtype suspension in TNE (0.5 ng/μL for the α1a and α1b subtypes and 13 ng/μL for the α1d subtype). The plate was incubated at rt for 1 hr. The contents of the wells were filtered through a glass filter (type C) (GF/C) membrane Unifilter plate (Packard Instruments) using the Packard Filtermate cell harvester. The filter plates were dried in a vacuum oven for 30 min at 40° C. 25 μL Microscint 20 liquid scintillation fluid (Packard Instuments) was added to each well. The radioactive content was analyzed in the TopCount microplate scintillation counter (Packard Instruments).
(§3) The Ki values (in nM) shown in Table 1 were determined using GraphPad Prism software.

α1b-AR = molecular target: T2, α1b-AR (Homo sapiens, UniProt P35368); assay: α1-Adrenergic Receptor Binding Assay, 125I-HEAT radio-ligand binding, transfected COS-7 cell membranes, α1b subtype
T2 construct: expressed in transfected cells; host or cells: COS-7 cells (African Green monkey kidney), membranes
T2 sequence (P35368 1-520): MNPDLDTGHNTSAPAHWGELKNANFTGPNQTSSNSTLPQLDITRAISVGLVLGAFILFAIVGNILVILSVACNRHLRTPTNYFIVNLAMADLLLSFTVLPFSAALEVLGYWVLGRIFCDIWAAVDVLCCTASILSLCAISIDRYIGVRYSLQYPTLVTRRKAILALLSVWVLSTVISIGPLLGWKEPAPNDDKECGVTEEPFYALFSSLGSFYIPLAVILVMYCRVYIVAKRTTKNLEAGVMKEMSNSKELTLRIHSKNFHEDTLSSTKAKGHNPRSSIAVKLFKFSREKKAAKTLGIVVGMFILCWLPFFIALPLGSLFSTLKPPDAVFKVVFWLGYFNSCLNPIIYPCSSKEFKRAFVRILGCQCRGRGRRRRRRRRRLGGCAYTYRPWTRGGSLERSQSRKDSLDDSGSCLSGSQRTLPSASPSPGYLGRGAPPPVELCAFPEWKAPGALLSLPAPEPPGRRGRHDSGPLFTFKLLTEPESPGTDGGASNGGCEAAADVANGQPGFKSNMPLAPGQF
Experimental: as §1, §2, §3

α1d-AR = molecular target: T3, α1d-AR (Homo sapiens, UniProt P25100); assay: α1-Adrenergic Receptor Binding Assay, 125I-HEAT radio-ligand binding, transfected COS-7 cell membranes, α1d subtype
T3 construct: expressed in transfected cells; host or cells: COS-7 cells (African Green monkey kidney), membranes
T3 sequence (P25100 1-572): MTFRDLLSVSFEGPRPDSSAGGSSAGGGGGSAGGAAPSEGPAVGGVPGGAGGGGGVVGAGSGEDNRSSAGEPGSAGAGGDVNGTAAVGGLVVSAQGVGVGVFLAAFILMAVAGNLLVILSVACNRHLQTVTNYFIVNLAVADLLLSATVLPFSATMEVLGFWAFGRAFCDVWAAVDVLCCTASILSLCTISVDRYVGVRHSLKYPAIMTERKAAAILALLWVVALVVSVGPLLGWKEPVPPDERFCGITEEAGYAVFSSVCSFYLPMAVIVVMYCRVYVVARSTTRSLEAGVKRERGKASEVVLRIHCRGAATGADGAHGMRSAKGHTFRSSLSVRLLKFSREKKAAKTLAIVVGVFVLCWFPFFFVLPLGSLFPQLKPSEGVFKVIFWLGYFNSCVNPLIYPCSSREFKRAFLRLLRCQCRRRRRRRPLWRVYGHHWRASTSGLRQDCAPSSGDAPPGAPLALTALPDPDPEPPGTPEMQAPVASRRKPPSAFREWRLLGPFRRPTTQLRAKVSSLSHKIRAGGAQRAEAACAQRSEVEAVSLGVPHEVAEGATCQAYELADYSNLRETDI
Experimental: as §1, §2, §3

[1] = average value, read-out: Alpha 1 Ki α1a (1) Average Value
[2] = individual values, read-out: Alpha 1 Ki α1a (2) Individual Values
[3] = average value, read-out: Alpha 1 Ki α1b (1) Average Value
[4] = individual values, read-out: Alpha 1 Ki α1b (2) Individual Values
[5] = average value, read-out: Alpha 1 Ki α1d (1) Average Value
[6] = individual values, read-out: Alpha 1 Ki α1d (2) Individual Values

| SMILES | Ki (α1a-AR; [1]) [nM] | Ki (α1a-AR; [2]) | Ki (α1b-AR; [3]) [nM] | Ki (α1b-AR; [4]) | Ki (α1d-AR; [5]) [nM] | Ki (α1d-AR; [6]) |
| --- | --- | --- | --- | --- | --- | --- |
| CC(C)Oc1ccccc1N1CCN(CC2CC(C(=O)N3CCc4cc(Cl)ccc43)=NO2)CC1 (stereo not drawn) [Compound 16, (5-chloro-2,3-dihydro-indol-1-yl)-{5-[4-(2-isopropoxy-phenyl)-piperazin-1-ylmethyl]-4,5-dihydro-isoxazol-3-yl}-methanone] | 8.3 | 8.3 nM | 133 | 133 nM | 4.7 | 4.7 nM |
| CC(C)Oc1ccccc1N1CCN(CC2CC(C(=O)N3CCN(c4ccccc4OC(C)C)CC3)=NO2)CC1 (stereo not drawn) [Compound 17, [4-(2-isopropoxy-phenyl)-piperazin-1-yl]-{5-[4-(2-isopropoxy-phenyl)-piperazin-1-ylmethyl]-4,5-dihydro-isoxazol-3-yl}-methanone] | 16.3 | 16.3 nM | 187 | 187 nM | 6.6 | 6.6 nM |
| CC(C)Oc1ccccc1N1CCN(CC2CC(C(=O)N3CCC(C(=O)c4ccc(F)cc4)CC3)=NO2)CC1 (stereo not drawn) [Compound 18, [4-(4-fluoro-benzoyl)-piperidin-1-yl]-{5-[4-(2-isopropoxy-phenyl)-piperazin-1-ylmethyl]-4,5-dihydro-isoxazol-3-yl}-methanone] | 7.9 | 9.9 nM and 5.9 nM | 423 | 423 nM | 21.5 | 22 nM and 21 nM |
| CC(C)Oc1ccccc1N1CCN(CC2CC(C(=O)N3CC(C)(C)c4cc(Br)ccc43)=NO2)CC1 (stereo not drawn) [Compound 19, (5-bromo-3,3-dimethyl-2,3-dihydro-indol-1-yl)-{5-[4-(2-isopropoxy-phenyl)-piperazin-1-ylmethyl]-4,5-dihydro-isoxazol-3-yl}-methanone] | 13 | 13 nM | 280 | 302 nM and 258 nM | 0.6 | 0.4 nM and 0.8 nM |
| CC(C)Oc1ccccc1N1CCN(CC2CC(C(=O)N3CCc4cc(F)ccc43)=NO2)CC1 (stereo not drawn) [Compound 20, (5-fluoro-2,3-dihydro-indol-1-yl)-{5-[4-(2-isopropoxy-phenyl)-piperazin-1-ylmethyl]-4,5-dihydro-isoxazol-3-yl}-methanone] | 2.23 | 1.35 nM and 3.1 nM | 112 | 97.2 nM and 126 nM | 0.623 | 0.145 nM and 1.1 nM |
| CC(C)Oc1ccccc1N1CCN(CC2CC(C(=O)N3CCC(C(=O)c4ccccc4)CC3)=NO2)CC1 (stereo not drawn) [Compound 21, (4-benzoyl-piperidin-1-yl)-{5-[4-(2-isopropoxy-phenyl)-piperazin-1-ylmethyl]-4,5-dihydro-isoxazol-3-yl}-methanone] | 5.25 | 3.2 nM and 7.3 nM | 224 | 288 nM and 160 nM | 7.65 | 5.5 nM and 9.8 nM |

More lines, now with the values ahead:

| Ki (α1a-AR; [1]) [nM] | Ki (α1a-AR; [2]) | Ki (α1b-AR; [3]) [nM] | Ki (α1b-AR; [4]) | Ki (α1d-AR; [5]) [nM] | Ki (α1d-AR; [6]) | SMILES |
| --- | --- | --- | --- | --- | --- | --- |
| 2.02 | 2.54 nM and 1.5 nM | 80.4 | 73 nM and 87.7 nM | 1.81 | 1.5 nM and 2.13 nM | CC(=O)N1CCc2cc(NC(=O)C3=NOC(CN4CCN(c5ccccc5OC(C)C)CC4)C3)ccc21 (stereo not drawn) [Compound 22, 5-[4-(2-isopropoxy-phenyl)-piperazin-1-ylmethyl]-4,5-dihydro-isoxazole-3-carboxylic acid (1-acetyl-2,3-dihydro-1H-indol-5-yl)-amide] |
| 5.65 | 5.65 nM | 259 | 259 nM | 6.56 | 6.56 nM | COc1cc2c(cc1OC)N(C(=O)C1=NOC(CN3CCN(c4ccccc4OC(C)C)CC3)C1)CC2 (stereo not drawn) [Compound 23, (5,6-dimethoxy-2,3-dihydro-indol-1-yl)-{5-[4-(2-isopropoxy-phenyl)-piperazin-1-ylmethyl]-4,5-dihydro-isoxazol-3-yl}-methanone] |
| 5.46 | 5.46 nM | 101 | 101 nM | 3.95 | 3.95 nM | CC(=O)N1CCc2ccc(NC(=O)C3=NOC(CN4CCN(c5ccccc5OC(C)C)CC4)C3)cc21 (stereo not drawn) [Compound 24, 5-[4-(2-isopropoxy-phenyl)-piperazin-1-ylmethyl]-4,5-dihydro-isoxazole-3-carboxylic acid (1-acetyl-2,3-dihydro-1H-indol-6-yl)-amide] |
